Legend:
[1] = xn = mol fraction of the nth substance listed; settings: 101 kPa, Liquid; for electrical conductivity: Alternating current cell with electrodes; for mass density: Vibrating tube method
[2] = refractive index (Na D-line) (dimensionless); xn = mol fraction of the nth substance listed; settings: 101 kPa, Liquid, Standard Abbe refractometry

NC(CO)(CO)CO [2-amino-2-(hydroxymethyl)-1,3-propanediol] + O
Settings | electrical conductivity, [1] [S/m] | mass density, [1] [kg/m3] | refractive index, [2]
293.15 K, x1 = 0.01 | 0.0158 | 1022.2 | 1.34226
293.15 K, x1 = 0.02 | 0.0179 | 1036.6 | 1.35089
293.15 K, x1 = 0.03 | 0.0189 | 1049.4 | 1.35884
293.15 K, x1 = 0.04 | 0.0193 | 1056.4 | 1.37118
293.15 K, x1 = 0.05 | 0.0205 | 1073.8 | 1.37635
293.15 K, x1 = 0.06 | 0.0205 | 1079.9 | 1.3797
293.15 K, x1 = 0.07 | 0.018 | 1090 | 1.38587
298.15 K, x1 = 0.01 | – | – | 1.34173
298.15 K, x1 = 0.02 | – | – | 1.35029
298.15 K, x1 = 0.03 | – | – | 1.35819
298.15 K, x1 = 0.04 | – | – | 1.37048
298.15 K, x1 = 0.05 | – | – | 1.37565
298.15 K, x1 = 0.06 | – | – | 1.37896
298.15 K, x1 = 0.07 | – | – | 1.38509
303.15 K, x1 = 0.01 | 0.0195 | 1019.5 | 1.34111
303.15 K, x1 = 0.02 | 0.0229 | 1033.6 | 1.34961
303.15 K, x1 = 0.03 | 0.0247 | 1046.2 | 1.35746
303.15 K, x1 = 0.04 | 0.0253 | 1053.3 | 1.3697
303.15 K, x1 = 0.05 | 0.0271 | 1070.3 | 1.37485
303.15 K, x1 = 0.06 | 0.0271 | 1076.2 | 1.37816
303.15 K, x1 = 0.07 | 0.0235 | 1086.3 | 1.38425
308.15 K, x1 = 0.01 | – | – | 1.34042
308.15 K, x1 = 0.02 | – | – | 1.34889
308.15 K, x1 = 0.03 | – | – | 1.35667
308.15 K, x1 = 0.04 | – | – | 1.36888
308.15 K, x1 = 0.05 | – | – | 1.37406
308.15 K, x1 = 0.06 | – | – | 1.37728
308.15 K, x1 = 0.07 | – | – | 1.38334
313.15 K, x1 = 0.01 | 0.0241 | 1016 | 1.33972
313.15 K, x1 = 0.02 | 0.0287 | 1029.9 | 1.34821
313.15 K, x1 = 0.03 | 0.031 | 1042.4 | 1.35596
313.15 K, x1 = 0.04 | 0.0318 | 1049.3 | 1.36815
313.15 K, x1 = 0.05 | 0.0341 | 1066.1 | 1.37347
313.15 K, x1 = 0.06 | 0.0341 | 1071.8 | 1.37673
313.15 K, x1 = 0.07 | 0.03 | 1081.8 | 1.38271
318.15 K, x1 = 0.01 | – | – | 1.33899
318.15 K, x1 = 0.02 | – | – | 1.34742
318.15 K, x1 = 0.03 | – | – | 1.3552
318.15 K, x1 = 0.04 | – | – | 1.36739
318.15 K, x1 = 0.05 | – | – | 1.37247
318.15 K, x1 = 0.06 | – | – | 1.37581
318.15 K, x1 = 0.07 | – | – | 1.38182
323.15 K, x1 = 0.01 | 0.0287 | 1011.6 | 1.3381
323.15 K, x1 = 0.02 | 0.0346 | 1025.5 | 1.34668
323.15 K, x1 = 0.03 | 0.0373 | 1037.8 | 1.35447
323.15 K, x1 = 0.04 | 0.0385 | 1044.7 | 1.36673
323.15 K, x1 = 0.05 | 0.0411 | 1061.3 | 1.37176
323.15 K, x1 = 0.06 | 0.0411 | 1067 | 1.37507
323.15 K, x1 = 0.07 | 0.0367 | 1076.9 | 1.38124
328.15 K, x1 = 0.01 | – | – | 1.33723
328.15 K, x1 = 0.02 | – | – | 1.34603
328.15 K, x1 = 0.03 | – | – | 1.35389
328.15 K, x1 = 0.04 | – | – | 1.36626
328.15 K, x1 = 0.05 | – | – | 1.37115
328.15 K, x1 = 0.06 | – | – | 1.37453
328.15 K, x1 = 0.07 | – | – | 1.38089
333.15 K, x1 = 0.01 | 0.0333 | 1006 | –
333.15 K, x1 = 0.02 | 0.0403 | 1020 | –
333.15 K, x1 = 0.03 | 0.0435 | 1032.7 | –
333.15 K, x1 = 0.04 | 0.0452 | 1039.6 | –
333.15 K, x1 = 0.05 | 0.0482 | 1056 | –
333.15 K, x1 = 0.06 | 0.0482 | 1061.7 | –
333.15 K, x1 = 0.07 | 0.0435 | 1071.4 | –
343.15 K, x1 = 0.01 | 0.0378 | 998.9 | –
343.15 K, x1 = 0.02 | 0.046 | 1013.2 | –
343.15 K, x1 = 0.03 | 0.0497 | 1027 | –
343.15 K, x1 = 0.04 | 0.0518 | 1033.9 | –
343.15 K, x1 = 0.05 | 0.0552 | 1050.2 | –
343.15 K, x1 = 0.06 | 0.0552 | 1055.9 | –
343.15 K, x1 = 0.07 | 0.0503 | 1065.6 | –
353.15 K, x1 = 0.01 | 0.0423 | 989.9 | –
353.15 K, x1 = 0.02 | 0.0514 | 1004.9 | –
353.15 K, x1 = 0.03 | 0.0555 | 1020.8 | –
353.15 K, x1 = 0.04 | 0.0579 | 1027.6 | –
353.15 K, x1 = 0.05 | 0.0619 | 1044 | –
353.15 K, x1 = 0.06 | 0.0619 | 1049.5 | –
353.15 K, x1 = 0.07 | 0.0567 | 1059.2 | –
